{
  "source": "paper PMC9502272",
  "about": "“A Metabolomics Approach for Predicting OATP1B-Type Transporter-Mediated Drug–Drug Interaction Liabilities” (Pharmaceutics, 2022)",
  "key": {"[1]": {"tested_on": "human OATP1B3", "assay": "Baseline plasma CDCA-24G in Oatp1a/1b(−/−) mice with transgenic hepatic expression of OATP1B3 (OATP1B3(tg))", "format": "in vivo", "settings": "range stated jointly for OATP1B1(tg) and OATP1B3(tg)", "procedure": "Plasma concentrations of levels of CDCA-24G and glycochenodeoxycholate-3-sulfate (GCDCA-S) were determined using LC-MS/MS using a Vanquish UHPLC coupled with a Quantiva triple quadrupole mass spectrometer (Thermo Fisher Scientific, Waltham, MA, USA). An Accucore aQ column (50 × 2.1 mm, dp = 2.6 μm; Thermo Fisher Scientific) was protected by a C18 AQUASIL guard cartridge (2.1 mm × 10 mm, dp = 3 μm; Thermo Fisher Scientific). The injection volume of sample was 5.0 μL. The temperature of the autosampler rack was 4 °C, and the temperature of the column was maintained at 20 °C. The mobile phase was composed of solvent A (2 mmol ammonium acetate in water) and solvent B (100% methanol), and the total run time was 4.6 min. The gradient conditions were as follows: 0–0.5 min, 45% B; 0.5–2.0 min, 45 to 90%, 2.0–4.0 min, 90% B; 4.0–4.6 min, 45% B, delivered at a flow rate of 0.4 mL/min. […] Precursor molecular ions, and product ions were recorded for the confirmation and detection of GCDCA-S (528.4 > 448.3) and CDCA-24G (567.4 > 391.1), using [^2H5]-GCDCA-S (535.5 > 453.3) and [^2H5]-CDCA-24G (572.5 > 396.1) as respective internal standards. The lower limit of quantitation (LLOQ) for both analytes was determined to be 0.5 ng/mL. […]"}, "[2]": {"biological_target": "T1, OATP1B1 (Homo sapiens, UniProt Q9Y6L6)", "T1 construct": "expressed in transfected cells; host or cells: HEK293 (ATCC)", "T1 sequence (Q9Y6L6 1-691)": "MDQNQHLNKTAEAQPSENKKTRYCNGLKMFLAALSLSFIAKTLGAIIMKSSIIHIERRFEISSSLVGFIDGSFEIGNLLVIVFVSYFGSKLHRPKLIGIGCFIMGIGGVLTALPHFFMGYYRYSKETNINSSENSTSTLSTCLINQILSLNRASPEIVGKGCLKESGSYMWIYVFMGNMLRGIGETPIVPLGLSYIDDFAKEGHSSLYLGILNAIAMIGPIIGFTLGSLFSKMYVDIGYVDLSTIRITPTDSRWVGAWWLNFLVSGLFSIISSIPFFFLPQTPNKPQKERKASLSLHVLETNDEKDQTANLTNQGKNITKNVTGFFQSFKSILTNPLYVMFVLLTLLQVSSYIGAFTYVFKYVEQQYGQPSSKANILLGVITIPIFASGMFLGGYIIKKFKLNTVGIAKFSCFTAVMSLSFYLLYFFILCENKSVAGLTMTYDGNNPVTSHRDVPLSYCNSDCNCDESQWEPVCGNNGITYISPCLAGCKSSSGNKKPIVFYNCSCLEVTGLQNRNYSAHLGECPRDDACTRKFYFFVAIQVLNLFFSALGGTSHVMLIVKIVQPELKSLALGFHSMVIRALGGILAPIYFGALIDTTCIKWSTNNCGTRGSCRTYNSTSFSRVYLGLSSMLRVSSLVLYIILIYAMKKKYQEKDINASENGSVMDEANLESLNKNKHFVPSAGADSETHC", "assay": "Uptake in HEK293 cells overexpressing OATP1B1", "format": "cell-based", "settings": "HEK293 cells overexpressing OATP1B1, 5 min uptake, vs empty vector", "procedure": "(§1) The generation of human embryonic kidney (HEK293) cells (ATCC) engineered to overexpress OATP1B1, Oatp1b2, or empty vector, the cell culture conditions, and general details of uptake studies have been reported in detail elsewhere. Briefly, cells were grown to 90% confluence on poly-lysine coated multi-well plates. […] The pre-treatment medium was rinsed off with warm 1× PBS followed by the addition of the test compounds for an incubation period of 5 min. After incubation, transport was halted by aspirating the medium and rinsing the cells three times with ice-cold 1× PBS. After lysing cells with 0.1 N HCl, and subsequent adding methanol, 20 μL aliquots were mixed with 60 μL of acetonitrile containing relevant internal standards. After vortex mixing, the mixtures were centrifuged, and the supernatants were used for quantitative analysis by LC-MS/MS. Drug uptake results were normalized to total protein content and then to data obtained in cells carrying an empty vector plasmid, which was set to 100%."}, "[3]": {"biological_target": "T2, Oatp1b2 (Mus musculus, UniProt Q9JJL3)", "T2 sequence (Q9JJL3 1-689)": "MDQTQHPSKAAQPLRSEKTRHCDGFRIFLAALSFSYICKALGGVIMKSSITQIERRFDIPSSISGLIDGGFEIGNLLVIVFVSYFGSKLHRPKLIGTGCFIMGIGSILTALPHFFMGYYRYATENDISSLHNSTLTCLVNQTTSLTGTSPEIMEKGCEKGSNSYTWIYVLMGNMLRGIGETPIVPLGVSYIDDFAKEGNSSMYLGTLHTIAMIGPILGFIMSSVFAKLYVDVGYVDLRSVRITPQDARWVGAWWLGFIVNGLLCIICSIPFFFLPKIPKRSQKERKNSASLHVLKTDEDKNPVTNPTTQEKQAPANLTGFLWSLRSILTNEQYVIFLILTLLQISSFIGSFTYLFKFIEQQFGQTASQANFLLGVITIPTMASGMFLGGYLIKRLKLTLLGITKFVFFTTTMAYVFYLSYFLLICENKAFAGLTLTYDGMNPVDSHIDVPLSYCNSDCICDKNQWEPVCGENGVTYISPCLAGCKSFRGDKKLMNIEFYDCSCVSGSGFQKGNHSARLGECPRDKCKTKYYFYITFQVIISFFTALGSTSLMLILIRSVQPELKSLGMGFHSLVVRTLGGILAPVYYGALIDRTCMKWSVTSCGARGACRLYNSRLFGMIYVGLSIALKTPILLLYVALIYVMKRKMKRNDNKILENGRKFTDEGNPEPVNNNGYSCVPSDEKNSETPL", "assay": "Uptake in HEK293 cells overexpressing Oatp1b2", "format": "cell-based", "design": "from tissue; hepatic transporter in vivo", "settings": "HEK293 cells overexpressing Oatp1b2, 5 min uptake, vs empty vector", "procedure": "as §1"}},
  "data": [
    {"smiles": "C[C@H](CCC(=O)O[C@@H]1O[C@H](C(=O)O)[C@@H](O)[C@H](O)[C@H]1O)[C@H]1CC[C@H]2[C@@H]3[C@H](O)C[C@@H]4C[C@H](O)CC[C@]4(C)[C@H]3CC[C@]12C", "note": "[CDCA-24G, chenodeoxycholate-24-glucuronide]", "values": [
      {"measurement": "Baseline CDCA-24G level, fold lower than in Oatp1a/1b(−/−) mice", "setting": "[1]", "result": "5- to 7 fold"},
      {"measurement": "Transport by human OATP1B-type transporter", "setting": "[2]", "result": "efficiently transported"},
      {"measurement": "Transport by murine OATP1B-type transporter", "setting": "[3]", "result": "efficiently transported"}
    ]}
  ]
}
